Where no end group is shown, it is not given here.
How the values were obtained:
Assay type in all cases: in vivo, rat
rats [1] = experiment: Sodium (salt) appetite aversion assay in rats; details: sodium-depleted rats
Description: In the salt appetite assay, rats were given 0.5 M NaCl salt water to drink for three days along with food and regular water. After three days, two injections of furosemide (5 mg /0.2 ml, s.c.) were given at one hour apart to sodium-deplete the rats. Rats were then returned to salt-free water and given a sodium-deficient diet. Rats actively seek to defend their internal sodium levels. Consequently, when sodium is depleted, they will avidly drink salt solutions unless ill or nauseous. Twenty-four hours following furosemide administration, rats were given NMU (0, 3, or 10 μg, ICV), or LiCl (0.15 M, 2 ml/kg, i.p.) and given water and 0.5 M NaCl to drink. Fluid consumption was measured 1, 2, and 24 hours post dosing.

rats [2] = experiment: Conditioned taste aversion (CTA) assay in rats; details: for saccharin intake relative to total intake (taste aversion): 24 hours post-dosing
Description: In the CTA study, rats were conditioned to two hour daily access to water, with access to water from two bottles for two hours each day for three days. On the fourth day, rats were given 0.15% saccharin for the two hour period instead of water and saccharin consumption measured. Rats were injected NMU-23 (0, 3, or 10 μg, ICV). LiCl was used as a positive control (0.15 M; 2 ml/kg, i.p.). On the fifth day, rats were given saccharin alone for the first hour, then water was added for the remaining 23 hours. Fluid consumption was measured at 1, 2, and 24 hours post injection. Aversion was assessed as a function of drinking preferences.

rats [3] = experiment: Food intake and feeding duration in rats after ICV administration; details: for overnight food intake, change expressed as percentage of control group: n=12 per group
Description: Male rats (Charles River Sprague Dawley) weighing 250–350 g were maintained in a temperature and humidity controlled facility with a 12 hour light/dark cycle (4:00 AM lights on). Rats were individually housed in custom designed shoebox cages on wire floors and fed ad libitum with fresh diet provided daily. […] Attached to the food drawers was an infrared feeding monitor that projects a beam across the drawer above the food (MiniMitter, Inc., Sun River, Oreg.). When the animal broke the infrared beam it caused a switch closure. An oscillator then sent off pulses (one pulse/second) and the total number of pulses indicated the length of time that the beam was broken which corresponds to the length of time spent feeding (recorded as feeding duration).
Cannulation and ICV administration were performed essentially as described in Murphy et al 1998 Neuropeptides 32:491–497, which is hereby incorporated by reference. After cannulation, rats were allowed to recover a minimum of seven days before injection with test compounds. All test substances were dissolved in artificial cerebral spinal fluid (aCSF). Rats were injected ICV with 1, 3, or 10 μg of rat NMU-23 (Phoenix Pharmaceuticals). Additional rats were injected ICV with either 0.3 or 0.03 μg of MT-II (Peninsula Laboratories) as a positive control for food intake suppression (melanocortin receptor agonist). […] Another group of ICV-cannulated rats were used in conditioned taste aversion (CTA) and sodium appetite (SA) aversion assays.

With `[Cl-].[Li+]` [LiCl] the “salt intake (sodium appetite)” value (rats [1]; 0.15 M, 2 ml/kg i.p.) was “significantly decreased salt intake” and the “saccharin intake (taste aversion)” value (rats [2]; 0.15 M, 2 ml/kg i.p., emetic control) was “decreased saccharin intake”.

With MT-II the overnight food intake (rats [3]; 0.3 μg ICV, positive control) was “significantly decreased” and the “cumulative feeding duration, change” value (rats [3]; ICV, positive control) was −71%.

For YKVNEYQGPVAPSGGFFLFRPRN-NH2 [NMU], the “cumulative feeding duration, change” value (rats [3]; 3 μg ICV) was −33%, the “overnight food intake, change expressed as percentage of control group” value (rats [3]; 3 μg ICV) was −38±6% and the “cumulative feeding duration, change” value (rats [3]; 10 μg ICV) was −39%. The “overnight food intake, change expressed as percentage of control group” value (rats [3]; 10 μg ICV) was −32±3%, the “total amount of salt intake (sodium appetite)” value (rats [1]; 3 μg ICV) was “did not significantly change” and the “total amount of salt intake (sodium appetite)” value (rats [1]; 10 μg ICV) was “did not significantly change”. The “saccharin intake relative to total intake (taste aversion)” value (rats [2]; 3 μg ICV) was “did not decrease saccharin intake” and the “saccharin intake relative to total intake (taste aversion)” value (rats [2]; 10 μg ICV) was “did not decrease saccharin intake”.
